Target: T1, calcium-independent phospholipase A2γ (iPLA2γ) (Homo sapiens, UniProt Q9NP80)
T1 construct: gene PNPLA8; 63 kDa recombinant human peroxisomal isoform, N-terminal (His)6 tag
T1 sequence (Q9NP80 221-782 limits assumed): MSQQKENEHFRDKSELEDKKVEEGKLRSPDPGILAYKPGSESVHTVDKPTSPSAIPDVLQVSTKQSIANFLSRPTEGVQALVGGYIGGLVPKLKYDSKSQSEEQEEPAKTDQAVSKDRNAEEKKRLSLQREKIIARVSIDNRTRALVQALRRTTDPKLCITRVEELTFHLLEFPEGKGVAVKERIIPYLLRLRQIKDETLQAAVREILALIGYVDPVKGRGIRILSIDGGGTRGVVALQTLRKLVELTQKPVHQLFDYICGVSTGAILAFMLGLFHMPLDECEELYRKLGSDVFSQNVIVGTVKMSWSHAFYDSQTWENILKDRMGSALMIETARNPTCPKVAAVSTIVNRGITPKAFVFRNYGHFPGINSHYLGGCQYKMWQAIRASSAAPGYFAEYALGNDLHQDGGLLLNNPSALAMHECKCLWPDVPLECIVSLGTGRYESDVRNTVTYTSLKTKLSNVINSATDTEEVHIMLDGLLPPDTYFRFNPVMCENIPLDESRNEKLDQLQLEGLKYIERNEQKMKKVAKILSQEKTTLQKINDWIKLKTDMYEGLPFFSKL
Assay: purified recombinant PLA2 activity assay (PAPC/diolein SUVs), LPC production by ESI-MS
Assay type: biochemical

IC50: ~1.75 nM
SMILES: C[N+](C)(C)C[C@@H](CC(=O)O)OC(=O)[C@@]1(CCCCCCOc2ccc(Cl)cc2)CO1 [ETO-carnitine, (R)-3-carboxy-2-(((R)-2-(6-(4-chlorophenoxy)hexyl)oxirane-2-carbonyl)oxy)-N,N,N-trimethylpropan-1-aminium]
